≈ marks a conversion by molar mass, not a printed value. Where “and” joins values, the source holds several entries; their conditions need not be identical. Identical values can stand only once.
How the values were obtained:
[1] = molecular target: CDK2 (UniProt P24941); experiment: Enzyme Assay
[2] = molecular target: CDK2 (human) (UniProt P24941); experiment: Cell-Based Assay
[3] = system: CDK2 (mouse); experiment: Cell-Based Assay; settings: p388
[4] = system: CDK2 (rat); experiment: Cell-Based Assay; settings: rasmc
[5] = system: CDK2 (murine); experiment: Animal Model; settings: l1210

| Compound | IC50 [1] [µg/mL] | other results |
| --- | --- | --- |
| CC(C)n1cnc2c(NCc3ccc(Cl)cc3)nc(NC[C@@H](N)Cc3ccccc3)nc21 | 1.07 (≈ 2.38 µM) | – |
| COc1ccc(CNc2nc(Cl)nc3c2ncn3C(C)C)cc1 | 4 (≈ 12.1 µM) | – |
| COc1ccc(CNc2nc(Cl)nc3c2ncn3C(F)(C(F)(F)F)C(F)(F)F)cc1 | > 45 | – |
| CC(C)n1cnc2c(NCc3ccc(Cl)cc3)nc(NC[C@@H](C)O)nc21 | 0.43 (≈ 1.15 µM) | – |
| COc1ccc(CNc2nc(N(Cc3cccnc3)CC(C)C#N)nc3c2ncn3C(C)C)cc1 (stereo unspecified) | 1 (≈ 2.13 µM) | – |
| CC(C)n1cnc2c(NCC3CCCCC3)nc(Cl)nc21 | 1 (≈ 3.25 µM) | – |
| COc1ccc(CNc2nc(Cl)nc3c2ncn3CC(C)C)cc1 | 60 (≈ 173 µM) | – |
| CC(C)n1cnc2c(NCc3ccc(F)cc3)nc(NC[C@H](C)O)nc21 | 0.22 (≈ 0.614 µM) | – |
| COc1ccc(CNc2nc(N3CC=CC3)nc3c2ncn3C(C)C)cc1 | 1 (≈ 2.74 µM) | – |
| Cc1ccc(-c2ccc(CNc3nc(N(CCO)CCO)nc4c3ncn4C(C)C)cc2)cc1 | 0.6 (≈ 1.3 µM) | – |
| COc1ccc(CNc2nc(N3CCCC(O)C3)nc3c2ncn3C(C)C)cc1 (stereo unspecified) | 1 (≈ 2.52 µM) | – |
| CC(C)n1cnc2c(NCc3ccc(-c4ccccn4)cc3)nc(N(CCO)CCO)nc21 | 0.16 (≈ 0.358 µM) | – |
| COc1ccc(CNc2nc(N(CCO)CCO)nc3c2ncn3CCO)cc1 | 0.5 (≈ 1.24 µM) | – |
| CC(C)[C@H](CO)Nc1nc(NCc2ccc(Cl)cc2)c2ncn(C(C)C)c2n1 | 0.19 (≈ 0.472 µM) | – |
| COc1ccc(CNc2nc(NCC(O)CN)nc3c2ncn3C(C)C)cc1 (stereo unspecified) | 0.6 (≈ 1.56 µM) | – |
| COc1ccc(CNc2nc(Cl)nc3c2ncn3Cc2ccccc2)cc1 | > 60 | – |
| CC(=O)C(C)n1cnc2c(NCc3ccc(F)cc3)nc(N(CCO)CCO)nc21 (stereo unspecified) | 11 (≈ 26.4 µM) | – |
| COc1ccc(CNc2nc(N(CCO)Cc3ccccc3)nc3c2ncn3C(C)C)cc1 | 1 (≈ 2.24 µM) | – |
| COc1ccc(CNc2nc(Cl)nc3c2ncn3CCCC#N)cc1 | > 60 | – |
| Clc1ccc(COc2nc(Cl)nc3[nH]cnc23)cc1 | 60 (≈ 203 µM) | – |
| COc1ccc(CNc2nc(N(CCO)CCO)nc3c2ncn3C)cc1 | 4 (≈ 10.7 µM) | – |
| CC(C)n1cnc2c(NCc3ccc(Cl)cc3)nc(NCC(O)c3ccccc3)nc21 (stereo unspecified) | 0.08 (≈ 0.183 µM) | – |
| CC(C)[C@@H](CO)Nc1nc(NCc2ccc(F)cc2)c2ncn(C(C)C)c2n1 | 0.19 (≈ 0.492 µM) | – |
| CC(C)n1cnc2c(Nc3cccc(-c4ccc(C#N)cc4)c3)nc(N(CCO)CCO)nc21 | 0.5 (≈ 1.09 µM) | – |
| CC(=O)C(C)n1cnc2c(NCc3ccc(Cl)cc3)nc(N(CCO)CCO)nc21 (stereo unspecified) | 37 (≈ 85.5 µM) | – |
| CC(C)n1cnc2c(NCc3ccc(Cl)cc3)nc(NCCCCCN)nc21 | 31 (≈ 77.1 µM) | – |

| Compound | IC50 [1] [µg/mL] | other results |
| --- | --- | --- |
| CC(N)CNc1nc(NCc2ccc(Cl)cc2)c2ncn(C(C)C)c2n1 (stereo unspecified) | 0.05 (≈ 0.134 µM) | IC50 ([2]; mrc 5): 1 µg/mL (≈ 2.67 µM) |
| COc1ccc(CNc2nc(Cl)nc3c2ncn3CCCCl)cc1 | > 60 | – |
| CC(C)n1cnc2c(NCc3ccc(F)cc3)nc(NC[C@@H]3CCCO3)nc21 | 0.63 (≈ 1.64 µM) | – |
| COc1ccc(CNc2nc(Cl)nc3c2ncn3C(F)(F)F)cc1 | > 60 | – |
| CC(CO)Nc1nc(NCc2ccc(F)cc2)c2ncn(C(C)C)c2n1 (stereo unspecified) | 0.18 (≈ 0.502 µM) | – |
| COc1ccc(CNc2nc(N(CC(C)O)CC(C)O)nc3c2ncn3C(C)C)cc1 (stereo unspecified) | 0.8 (≈ 1.87 µM) | – |
| COc1ccc(CNc2nc(Cl)nc3[nH]cnc23)cc1 | 60 (≈ 207 µM) | – |
| CC(C)n1cnc2c(NCc3ccc(-c4ccccc4)cc3)nc(NCC(O)CO)nc21 (stereo unspecified) | 0.6 (≈ 1.39 µM) | – |
| CC(C)n1cnc2c(NCc3ccc(S(N)(=O)=O)cc3)nc(NCCN)nc21 | 9 (≈ 22.2 µM) | – |
| CC(C)n1cnc2c(NCc3ccc(Cl)cc3)nc(NCCN)nc21 | 0.35 (≈ 0.973 µM) | IC50 ([2]; mrc 5): 1 µg/mL (≈ 2.78 µM) |
| FC(F)(F)n1cnc2c(OCc3ccc(Cl)cc3)nc(Cl)nc21 | > 60 | – |
| CC(C)n1cnc2c(NCc3ccc(F)cc3)nc(NC[C@H]3CCCO3)nc21 | 0.58 (≈ 1.51 µM) | – |
| CC(N)CNc1nc(NCc2ccc(F)cc2)c2ncn(C(C)C)c2n1 (stereo unspecified) | 0.48 (≈ 1.34 µM) | – |
| CC(C)n1cnc2c(NCc3ccc(-c4cccs4)cc3)nc(N(CCO)CCO)nc21 | 0.5 (≈ 1.1 µM) | – |
| FC(F)(F)n1cnc2c(NCc3ccc(Cl)cc3)nc(Cl)nc21 | 1 (≈ 2.76 µM) | – |
| Cn1cnc2c(NCCO)nc(NCCO)nc21 | > 60 | – |
| CC(C)n1cnc2c(NCc3ccc(Cl)cc3)nc(N(CCO)CCNCCO)nc21 | 0.43 (≈ 0.96 µM) | – |
| COc1ccc(CNc2nc(NCCO)nc3c2ncn3C)cc1 | 4 (≈ 12.2 µM) | – |
| COc1ccc(CNc2nc(Cl)nc3c2ncn3C)cc1 | 6 (≈ 19.8 µM) | – |
| COc1cccc(CNc2nc(Cl)nc3c2ncn3C(C)C)c1 | 0.9 (≈ 2.71 µM) | – |
| CC(C)n1cnc2c(-c3cccc(OCc4ccccc4)c3)nc(N(CCO)CCO)nc21.CC(C)n1cnc2c(-c3cccc(Oc4ccccc4)c3)nc(N(CCO)CCO)nc21 | – | IC50 [3]: 1.5 µg/mL; IC50 ([2]; mcf-7): 2 µg/mL; IC50 ([2]; ovcar): 2 µg/mL; IC50 ([2]; panc1): 2.5 µg/mL |
| CSc1ccc(Nc2nc(N(CCO)CCO)nc3c2ncn3C(C)C)cc1 | 0.07 (≈ 0.174 µM) | – |
| CC(C)n1cnc2c(Nc3ccccc3)nc(Cl)nc21 | 1 (≈ 3.48 µM) | – |
| CSc1cccc(Nc2nc(N(CCO)CCO)nc3c2ncn3C(C)C)c1 | 0.1 (≈ 0.248 µM) | – |
| COC(=O)c1ccc(Cn2cnc3c(NCc4ccc(OC)cc4)nc(Cl)nc32)cc1 | > 60 | – |
| CC(C)n1cnc2c(NCc3ccc(Cl)cc3)nc(N(CCN)CCO)nc21 | 0.07 (≈ 0.173 µM) | IC50 ([2]; mrc 5): 1 µg/mL (≈ 2.48 µM) |

| Compound | IC50 [1] [µg/mL] | other results |
| --- | --- | --- |
| CC(C)Cn1cnc2c(NCc3ccc(C(F)(F)F)cc3)nc(N(CCO)CCO)nc21 | 59 (≈ 130 µM) | – |
| CSc1ccc(Nc2nc(Cl)nc3c2ncn3C(C)C)cc1 | 0.6 (≈ 1.8 µM) | – |
| CC(C)n1cnc2c(NCc3ccc(Cl)cc3)nc(NCCCN)nc21 | 1 (≈ 2.67 µM) | – |
| COc1ccc(CNc2nc(N3CCOCC3)nc3c2ncn3C(C)C)cc1 | – | IC50 ([2]; ovcar): 4 µg/mL (≈ 10.5 µM); IC50 ([2]; panc1): 5.5 µg/mL (≈ 14.4 µM) |
| CC(C)n1cnc2c(Nc3ccc(-c4ccccc4)cc3)nc(N(CCO)CCO)nc21 | 0.6 (≈ 1.39 µM) | IC50 ([2]; caco-2): 0.5 µg/mL (≈ 1.16 µM); IC50 ([2]; mcf-7): 4 µg/mL (≈ 9.25 µM); IC50 ([2]; ovcar): 7 µg/mL (≈ 16.2 µM); IC50 ([2]; panc1): 4 µg/mL (≈ 9.25 µM); IC50 [4]: 1 µg/mL (≈ 2.31 µM) |
| CC(C)n1cnc2c(NCc3ccc(Cl)cc3)nc(N(CCO)CCO)nc21 | 0.12 (≈ 0.296 µM) | IC50 ([2]; mrc 5): 3 µg/mL (≈ 7.41 µM) |
| COc1ccc(CNc2nc(NCCO)nc3c2ncn3C(C)C)cc1 | 4 (≈ 11.2 µM) | – |
| Cn1cnc2c(OCc3ccc(Cl)cc3)nc(Cl)nc21 | 60 (≈ 194 µM) | – |
| CC(C)n1cnc2c(NCc3ccc(F)cc3)nc(NC[C@@H](C)O)nc21 | 0.23 (≈ 0.642 µM) | – |
| CC(C)n1cnc2c(NCc3ccc(F)cc3)nc(N(CCO)CCO)nc21 | 0.15 (≈ 0.386 µM) | – |
| CC(C)[C@H](CO)Nc1nc(NCc2ccc(F)cc2)c2ncn(C(C)C)c2n1 | 0.06 (≈ 0.155 µM) | – |
| CC(C)n1cnc2c(NCc3ccc(-c4ccccc4)cc3)nc(N(CCO)CCO)nc21 | 0.6 (≈ 1.34 µM) | IC50 ([2]; caco-2): 3.5 µg/mL (≈ 7.84 µM); IC50 ([2]; mcf-7): 1 µg/mL (≈ 2.24 µM); IC50 ([2]; ovcar): 2 µg/mL (≈ 4.48 µM); IC50 ([2]; panc1): 1.3 µg/mL (≈ 2.91 µM) |
| COc1ccc(CNc2nc(N(CCO)CCO)nc3c2ncn3C(F)(C(F)(F)F)C(F)(F)F)cc1 | 40 (≈ 76 µM) | – |
| COc1cccc(CNc2nc(N(CCO)CCO)nc3c2ncn3C(C)C)c1 | 0.5 (≈ 1.25 µM) | – |
| CC(C)n1cnc2c(NCc3ccc(Cl)cc3)nc(N[C@@H](Cc3ccccc3)C(N)=O)nc21 | 1.07 (≈ 2.31 µM) | – |
| OCCNc1nc(NCc2ccccc2)nc2[nH]cnc12 | > 60 | – |
| CC(C)n1cnc2c(NCc3ccc(Cl)cc3)nc(NC[C@H](C)O)nc21 | 0.38 (≈ 1.01 µM) | – |
| CC(C)n1cnc2c(NCc3ccc(Cl)cc3)nc(NCCNCCO)nc21 | 2.02 (≈ 5 µM) | – |
| CC(C)n1cnc2c(NCc3ccc(-c4ccc(C(F)(F)F)cc4)cc3)nc(N(CCO)CCO)nc21 | 0.6 (≈ 1.17 µM) | – |
| COc1ccc(CNc2nc(Cl)nc3c2ncn3CCC(=O)c2cccc3ccccc23)cc1 | > 60 | – |
| CC(C)n1cnc2c(NCc3ccc(Cl)cc3)nc(N[C@@H](C)CO)nc21 | 0.26 (≈ 0.694 µM) | – |
| CC(C)n1cnc2c(NCc3ccc(C(F)(F)F)cc3)nc(N(CCO)CCO)nc21 | 0.56 (≈ 1.28 µM) | – |
| CC(C)n1cnc2c(NCc3ccc(Cl)cc3)nc(N[C@H](C)CO)nc21 | 0.35 (≈ 0.934 µM) | – |
| COc1ccc(CNc2nc(NC(C)(CO)C(C)C)nc3c2ncn3C(C)C)cc1 (stereo unspecified) | 1 (≈ 2.42 µM) | – |
| CC(C)n1cnc2c(NCc3ccc4c(c3)OCO4)nc(N(CCO)CCO)nc21 | 0.8 (≈ 1.93 µM) | – |
| COc1ccc(CNc2nc(N(CCO)CCO)nc3c2ncn3C(C)C)cc1 | – | MST [5]: 13 d (3×) and 11 d and 12 d; IC50 [4]: 0.5 µg/mL (≈ 1.25 µM) |
